{
  "source": "patent US20140213559A1",
  "about": "“COMPOSITIONS AND TREATMENTS FOR DYSTROPHIES” (MD PHARMA AB, priority 2011, published 2014)",
  "assay_type_in_all_cases": "in vivo, mouse",
  "key": {"[1]": {"tested_on": "autophagy-related genes (LC3B, Cathepsin L, Lamp2a, Gabarapl1, Atg4b, Vps34, Beclin)", "assay": "Expression of autophagy-related genes in quadriceps muscle after systemic 3-MA injection (qRT-PCR, Western blot, immunofluorescence)", "details": "dy3K/dy3K mice, 3-MA 15 mg/kg intraperitoneal at 2.5 and 3.5 weeks, 14 days post-injection", "protocol": "(§1) Systemic administration was performed by intraperitoneal injection of 3-MA (15 mg/kg) into dy3K/dy3K mice and control littermates at the age of 2.5 weeks and 3.5 weeks. Mice were sacrificed 14 days after injection and quadriceps and tibialis anterior muscles were processed for morphometric analysis, immunofluorescence experiments, qRT-PCR or Western blot analysis. Prior to the euthanasia, an exploratory locomotion test was performed.\nTotal RNA was extracted from 10 mg quadriceps muscle of 6 dy3K/dy3K mice (3.5-week-old) and 6 WT littermates and 5 WT and 5 dy3K/dy3K mice treated with 3-MA using RNeasy mini kit (Qiagen) including an initial step of proteinase K digestion (Fermentas, 240 ng/μl). […] Quantitative PCRs were performed in triplicate with the Maxima SYBR Green qPCR Master Mix (Fermentas). Expression of target and reference genes was monitored using a real-time qRT-PCR method (Light Cycler, Roche) with the previously described primers for the autophagic genes LC3B, Cathepsin L, Lamp2a, Gabarapl1, Atg4b, Vps34 and Beclin (8). The amplification efficiency for each primer pair was evaluated by amplification of serially diluted template cDNAs ([…]). Efficiency corrected RNA levels (in arbitrary units) were calculated by using the formula E^−Ct. Expression levels were then calculated relative to the endogenous control gene GAPDH and relative to wild-type quadriceps. […]"}, "dy3K/dy3K mice [2]": {"tested_on": "dy3K/dy3K mice", "assay": "Body weight measurement", "details": "3-MA treated vs non-injected dy3K/dy3K mice, 4-week-old", "protocol": "as §1"}, "wild-type mice": {"tested_on": "wild-type mice", "assay": "Hind leg paralysis observation in injected wild-type mice", "details": "3-MA injected wild-type mice", "protocol": "as §1"}, "Akt": {"tested_on": "Akt", "assay": "Akt phosphorylation in quadriceps muscle, Western blot", "details": "dy3K/dy3K quadriceps", "protocol": "as §1\nIsolated quadriceps muscles were obtained from 6 wild-type, 6 dy3K/dy3K mice (3.5 weeks of age) and 6 dy3K/dy3K mice 48 h or 14 days after 3-MA injection. Each sample was immediately frozen in liquid nitrogen and reduced to powder using a mortar. Protein extracts were obtained as previously described (16). A total of […] of denaturated protein was loaded on 10-20% acrylamide SDS-gels (Clearpage, CBS Scientific) and blotted onto nitrocellulose membranes (Hybond-C, Amersham) during 1.5 hour (Biorad). The membranes were blocked for one hour at RT in PBS, 0.01% Tween-20, 5% milk and incubated overnight at 4° C. with rabbit polyclonal antibodies directed against pAkt (Ser 473, 1/2000, #4060 or Thr 308, 1/1000, #2965, Cell Signaling Technology), Akt (1/1000, #4685, Cell Signaling Technology), Vps34 (1/200, V9764, Sigma) or LC3B (1/250, #2775, Cell Signaling Technology). […]"}, "dy3K/dy3K mice [3]": {"tested_on": "dy3K/dy3K mice", "assay": "Exploratory locomotion, open field test", "details": "3-MA injected dy3K/dy3K mice, 14 days after injection, 5 min", "protocol": "as §1\nExploratory locomotion was examined in an open field test. In each experiment, the mouse 14 days after 3-MA injection (n=11 for dy3K/dy3K and wild-type, respectively) was placed into a new cage and allowed to explore the cage for 5 min. The time that the mouse spent moving around was measured manually."}, "dy3K/dy3K mice [4]": {"tested_on": "dy3K/dy3K mice", "assay": "Histology, immunofluorescence and morphometric analysis of muscle after systemic 3-MA injection", "protocol": "Systemic administration was performed by intraperitoneal injection of 3-MA (15 mg/kg) into dy3K/dy3K mice and control littermates at the age of 2.5 weeks and 3.5 weeks. […] Prior to the euthanasia, an exploratory locomotion test was performed.\nQuadriceps and tibialis anterior muscles from wild-type, dy3K/dy3K and injected mice (n=6 for each group) were rapidly dissected after euthanasia and frozen in OCT (Tissue Tek) in liquid nitrogen. Serial sections of […] were either stained with hematoxylin and eosin or processed for immunofluorescence experiments following standard procedures (20) with rabbit polyclonal antibodies directed against LC3B (1/100, #3868, Cell Signaling Technology), laminin γ1 chain (1/1000, #1083), laminin α4 chain (1/400, #1100) and […] (1/400, #1117) generously provided by Dr. T. Sasaki, rat monoclonal antibodies against laminin γ1 chain (1/200, MAB 1914, Chemicon) and tenascin-C (undiluted, MTn15), goat polyclonal antibody against collagen III (1/100, #1330, SouthernBiotech) and mouse monoclonal antibodies against caspase-3 (1/100, CPP32, BD Transduction Laboratory), embryonic myosin heavy chain (F1.652, Developmental Studies Hybridoma Bank) and MyoD (1/100, clone 5.8A Dako). For apoptotic myofiber detection, a TUNEL detection kit was used following instructions of the manufacturer (GenScript). Sections were analyzed using a Zeiss Axioplan fluorescence microscope. Images were captured using an ORCA 1394 ER digital camera with the Openlab 3 software.\nMeasurements were performed on whole quadriceps or tibialis anterior muscle sections from untreated wild-type and dy3K/dy3K, wild-type and dy3K/dy3K 3-MA injected animals (n=6 for each group). Tenascin-C and collagen III positive areas, eMHC positive fibers, caspase-3 positive fibers, TUNEL-positive myonuclei and fiber diameters were measured using the imageJ software. Minimal Feret's diameter was measured (41) for at least 1500 fibers for each mouse. The same number of fibers was used for quantification of fibers with centrally located nuclei. Wet quadriceps muscle weights were determined from 7 uninjected wild-type or dy3K/dy3K and 3-MA treated wild-type (n=4) and dy3K/dy3K (n=6) animals and correlated to body weight."}, "dy3K/dy3K mice [5]": {"tested_on": "dy3K/dy3K mice", "assay": "Survival curves", "details": "two systemic injections of 3-MA, 22 days for non-treated", "protocol": "as §1\nDeath was monitored in 3-MA injected dy3K/dy3K mice (n=9). A survival curve was constructed using the GraphPad Prism 4 software."}, "dy3K/dy3K mice [6]": {"tested_on": "dy3K/dy3K mice", "assay": "Peripheral neuropathy / hind leg paralysis observation", "details": "3-MA treated dy3K/dy3K mice", "protocol": "as §1"}, "[7]": {"details": "3-MA injected dy3K/dy3K mice, quadriceps"}, "[8]": {"details": "3-MA injected vs non-injected dy3K/dy3K mice, quadriceps, 14 days post-injection"}, "[9]": {"details": "3-MA treated dy3K/dy3K mice, quadriceps, 14 days"}},
  "data": [
    {"smiles": "Cn1cnc(N)c2ncnc1-2", "note": "[3-MA, 3-methyladenine]", "values": [
      {"measurement": "expression of the autophagy-related genes", "setting": "[1]", "result": "restored the expression of the autophagy-related genes to the basal level"},
      {"measurement": "body weight", "setting": "dy3K/dy3K mice [2]", "result": "weighed significantly more"},
      {"measurement": "hind leg paralysis", "setting": "wild-type mice", "result": "not in 3-MA injected wild-type mice"},
      {"measurement": "Akt phosphorylation on threonine 308 and serine 473", "setting": "Akt; 48 h after injection", "result": "restored to wild-type levels"},
      {"measurement": "Akt phosphorylation on threonine 308 and serine 473", "setting": "Akt; 14 days after injection", "result": "restored to wild-type levels"},
      {"measurement": "activity in an open field test (exploratory locomotion)", "setting": "dy3K/dy3K mice [3]", "result": "same level of activity as wild-type animals"},
      {"measurement": "amount of MyoD1 positive nuclei", "setting": "dy3K/dy3K mice [4]; [7]", "result": "increased"},
      {"measurement": "number of cells with centrally located nuclei", "setting": "dy3K/dy3K mice [4]; [7]", "result": "slightly but significantly elevated"},
      {"measurement": "proportion of fibers expressing eMHC", "setting": "dy3K/dy3K mice [4]; [7]", "result": "significantly increased"},
      {"measurement": "ratio of quadriceps muscle wet weight per body weight", "setting": "dy3K/dy3K mice [4]; 3-MA injected vs age-matched non-injected dy3K/dy3K mice", "result": "normalized"},
      {"measurement": "Collagen III expression (fibrosis)", "setting": "dy3K/dy3K mice [4]; [8]", "result": "reduced"},
      {"measurement": "tenascin-C expression (fibrosis)", "setting": "dy3K/dy3K mice [4]; [8]", "result": "reduced"},
      {"measurement": "proportion of TUNEL-positive myonuclei", "setting": "dy3K/dy3K mice [4]; 3-MA treated dy3K/dy3K animals, quadriceps", "result": "significantly reduced"},
      {"measurement": "expression of laminin 132 chain", "setting": "dy3K/dy3K mice [4]; [9]", "result": "near normal"},
      {"measurement": "expression of laminin α4 chain", "setting": "dy3K/dy3K mice [4]; [9]", "result": "near normal"},
      {"measurement": "muscle morphology", "setting": "dy3K/dy3K mice [4]; dy3K/dy3K mice, 3-MA 15 mg/kg intraperitoneal at 2.5 and 3.5 weeks, 14 days post-injection", "result": "considerably improved muscle morphology"},
      {"measurement": "caspase-3 positive fibers", "setting": "dy3K/dy3K mice [4]; dy3K/dy3K mice, forty-eight hours after 3-MA injection", "result": "same proportion as in non-injected dy3K/dy3K mice"},
      {"measurement": "proportion of caspase 3 positive fibers", "setting": "dy3K/dy3K mice [4]; dy3K/dy3K quadriceps, 14 days after injection", "result": "significantly decreased"},
      {"measurement": "average fibre diameter", "setting": "dy3K/dy3K mice [4]; quadriceps, dy3K/dy3K mice upon 3-MA injection", "result": "increased"},
      {"measurement": "fibre size distribution in quadriceps muscle", "setting": "dy3K/dy3K mice [4]; wild-type and dy3K/dy3K injected animals", "result": "significantly shifted towards larger fibres"},
      {"measurement": "median survival", "setting": "dy3K/dy3K mice [5]", "result": 37, "unit": "days"},
      {"measurement": "pathology of the peripheral nerve", "setting": "dy3K/dy3K mice [6]", "result": "did not appreciably improve"},
      {"measurement": "hind leg paralysis", "setting": "dy3K/dy3K mice [6]; similar in non-treated dy3K/dy3K mice", "result": "transient hind leg paralysis often occurred in one leg"}
    ]}
  ]
}
